US9938261B2, “Heterocyclic compounds and methods of use thereof” (AMBIT BIOSCIENCES CORPORATION, priority 2011, dated 2018)

What was measured:
FLT3 = target: T1, FLT3 (Homo sapiens, UniProt P36888); assay: Competition binding assay, FLT3 Kd; details: competition binding
T1 construct: made in house
T1 sequence (P36888 27-993): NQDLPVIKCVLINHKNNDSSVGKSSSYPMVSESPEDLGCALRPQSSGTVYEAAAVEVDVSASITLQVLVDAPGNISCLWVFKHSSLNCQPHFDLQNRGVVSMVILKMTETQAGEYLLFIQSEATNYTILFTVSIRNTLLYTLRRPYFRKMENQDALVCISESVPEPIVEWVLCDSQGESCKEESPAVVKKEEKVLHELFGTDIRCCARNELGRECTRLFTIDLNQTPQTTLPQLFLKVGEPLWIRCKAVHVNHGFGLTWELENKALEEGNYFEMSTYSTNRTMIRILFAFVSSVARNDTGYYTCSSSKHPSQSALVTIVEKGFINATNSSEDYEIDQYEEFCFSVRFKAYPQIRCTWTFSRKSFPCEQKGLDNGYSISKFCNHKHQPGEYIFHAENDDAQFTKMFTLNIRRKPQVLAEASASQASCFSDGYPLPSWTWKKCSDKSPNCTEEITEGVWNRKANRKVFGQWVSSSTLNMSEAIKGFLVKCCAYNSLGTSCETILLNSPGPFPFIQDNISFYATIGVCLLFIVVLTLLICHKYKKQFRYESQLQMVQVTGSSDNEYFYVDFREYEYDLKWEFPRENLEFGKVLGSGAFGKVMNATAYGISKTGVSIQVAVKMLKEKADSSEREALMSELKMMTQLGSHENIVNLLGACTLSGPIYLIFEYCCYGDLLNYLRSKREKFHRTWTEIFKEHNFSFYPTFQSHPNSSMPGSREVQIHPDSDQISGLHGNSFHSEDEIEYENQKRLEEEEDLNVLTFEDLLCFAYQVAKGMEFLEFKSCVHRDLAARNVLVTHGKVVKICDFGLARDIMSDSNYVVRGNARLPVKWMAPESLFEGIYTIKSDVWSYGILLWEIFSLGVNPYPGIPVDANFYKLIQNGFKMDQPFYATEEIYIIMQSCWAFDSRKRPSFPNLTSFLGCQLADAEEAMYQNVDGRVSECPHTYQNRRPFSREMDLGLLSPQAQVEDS
How it was run: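 Read-out is quantitative PCR of kinase recovered from affinity beads after competition with test compound. Binding reached equilibrium over 1 hour at room temperature; Kd values come from eleven-point threefold serial dilutions.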

M-NFS-60 cells = assay: M-NFS-60 cell proliferation assay (Alamar Blue); type: cell-based, mouse; details: Mus musculus; M-NFS-60 cell proliferation; read-out: CSF1R M-NFS-60 CTB:IC50
How it was run: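 Mouse M-NFS-60 cells growing on 20 ng/mL M-CSF in RPMI/10% FBS were exposed to compounds (9 half-log concentrations, 0.5% DMSO) for 72 h at 37 °C. Viability read by Alamar Blue fluorescence (ex 560/em 590 nm, 3 h). IC50 = 50% proliferation inhibition versus control, mean of duplicates.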

Row | SMILES | Kd (FLT3) | IC50 (M-NFS-60 cells)
1 | O[C@H]1[C@@H](O)CCC[C@H]1Nc1nc2ccc(Cn3cnc4cc(F)cnc43)cc2s1 [Example 228, (1S,2R,3R)-3-((6-((6-fluoro-3H-imidazo[4,5-b]pyridin-3-yl)methyl)benzo[d]thiazol-2-yl)amino)cyclohexane-1,2-diol] | > 5000 nM | > 1500 nM
2 | COCCOc1ccn2c(Cc3ccc4nc(N[C@@H]5CCCC[C@H]5O)sc4c3)cnc2c1 [Example 153, (1R,2R)-2-((6-((7-(2-methoxyethoxy)imidazo[1,2-a]pyridin-3-yl)methyl)benzo[d]thiazol-2-yl)amino)cyclohexanol] | 1000 to 5000 nM | 50 to 400 nM
3 | O[C@@H]1CCCC[C@H]1Nc1nc2ccc(Cc3cnc4ccc(Cl)nn34)cc2s1 [Example 158, (1R,2R)-2-((6-((6-chloroimidazo[1,2-b]pyridazin-3-yl)methyl)benzo[d]thiazol-2-yl)amino)cyclohexanol] | 200 to 1000 nM | ≤ 50 nM
4 | O[C@@H]1CCCC[C@H]1Nc1nc2ccc(Cn3cnc4cc(F)cnc43)cc2o1 [Example 132, (1R,2R)-2-((6-((6-fluoro-3H-imidazo[4,5-b]pyridin-3-yl)methyl)benzo[d]oxazol-2-yl)amino)cyclohexanol] | ≤ 200 nM | 50 to 400 nM
5 | O=C(O)/C=C/c1ccc2c(c1)ncn2Cc1ccc2nc(N[C@@H]3CCCC[C@H]3O)sc2c1 [Example 224, (E)-3-(1-((2-(((1R,2R)-2-hydroxycyclohexyl)amino)benzo[d]thiazol-6-yl)methyl)-1H-benzo[d]imidazol-5-yl)acrylic acid] | 200 to 1000 nM | > 1500 nM
6 | COc1nc2c(cc1Br)ncn2Cc1ccc2nc(N[C@@H]3CCCC[C@H]3O)sc2c1 [Example 123, (1R,2R)-2-((6-((6-bromo-5-methoxy-3H-imidazo[4,5-b]pyridin-3-yl)methyl)benzo[d]thiazol-2-yl)amino)cyclohexanol] | 200 to 1000 nM | 50 to 400 nM
7 | O[C@@H]1[C@H](O)CCC[C@H]1Nc1nc2ccc(Cn3cnc4cc(-n5cncn5)cnc43)cc2s1 [Example 234, (1R,2S,3R)-3-((6-((6-(1H-1,2,4-Triazol-1-yl)-3H-imidazo[4,5-b]pyridin-3-yl)methyl)benzo[d]thiazol-2-yl)amino)cyclohexane-1,2-diol] | 200 to 1000 nM | 50 to 400 nM
8 | O[C@@H]1CCCC[C@H]1Nc1nc2ccc(Cn3cnc4cc(-n5cncn5)cnc43)cc2s1 [Example 145, (1R,2R)-2-((6-((6-(1H-1,2,4-triazol-1-yl)-3H-imidazo[4,5-b]pyridin-3-yl)methyl)benzo[d]thiazol-2-yl)amino)cyclohexanol] | 1000 to 5000 nM | 50 to 400 nM
9 | CC(=O)c1ccc2c(c1)ncn2Cc1ccc2nc(N[C@@H]3CCCC[C@H]3O)sc2c1 [Example 110, 1-(1-((2-(((1R,2R)-2-hydroxycyclohexyl)amino)benzo[d]thiazol-6-yl)methyl)-1H-benzo[d]imidazol-5-yl)ethanone] | 1000 to 5000 nM | 50 to 400 nM
10 | O[C@@H]1CCCC[C@H]1Nc1nc2ccc(Cn3cnc4cc(-n5cncn5)ccc43)cc2s1 [Example 161, (1R,2R)-2-((6-((5-(1H-1,2,4-triazol-1-yl)-1H-benzo[d]imidazol-1-yl)methyl)benzo[d]thiazol-2-yl)amino)cyclohexanol] | 1000 to 5000 nM | 50 to 400 nM
11 | Cc1cc2ncn(Cc3ccc4nc(N[C@@H]5CCCC[C@H]5O)sc4c3)c2cc1C [Example 119, (1R,2R)-2-((6-((5,6-dimethyl-1H-benzo[d]imidazol-1-yl)methyl)benzo[d]thiazol-2-yl)amino)cyclohexanol] | 200 to 1000 nM | 50 to 400 nM
12 | N#Cc1cnc2c(c1)ncn2Cc1ccc2nc(N[C@@H]3CCCC[C@H]3CO)sc2c1 [Example 140, 3-((2-(((1R,2R)-2-(hydroxymethyl)cyclohexyl)amino)benzo[d]thiazol-6-yl)methyl)-3H-imidazo[4,5-b]pyridine-6-carbonitrile] | > 5000 nM | 400 to 1500 nM
13 | O[C@@H]1CCCC[C@H]1Nc1nc2ccc(Cc3cnc4sccn34)cc2s1 [Example 157, (1R,2R)-2-((6-(imidazo[2,1-b]thiazol-5-ylmethyl)benzo[d]thiazol-2-yl)amino)cyclohexanol] | > 5000 nM | 400 to 1500 nM
14 | Fc1cnc2c(c1)ncn2Cc1ccc2nc(N[C@H]3C=CCCC3)sc2c1 [Example 176, (R)—N-(cyclohex-2-en-1-yl)-6-((6-fluoro-3H-imidazo[4,5-b]pyridin-3-yl)methyl)benzo[d]thiazol-2-amine] | 1000 to 5000 nM | 400 to 1500 nM
15 | COc1nc2c(cc1C#N)ncn2Cc1ccc2nc(N[C@@H]3CCCC[C@H]3O)sc2c1 [Example 126, 3-((2-(((1R,2R)-2-hydroxycyclohexyl)amino)benzo[d]thiazol-6-yl)methyl)-5-methoxy-3H-imidazo[4,5-b]pyridine-6-carbonitrile] | 200 to 1000 nM | 50 to 400 nM
16 | O[C@@H]1[C@H](O)CCC[C@H]1Nc1nc2ccc(Cc3cnc4cc(-n5nccn5)ccn34)cc2s1 [Example 231, (1R,2S,3R)-3-((6-((7-(2H-1,2,3-triazol-2-yl)imidazo[1,2-a]pyridin-3-yl)methyl)benzo[d]thiazol-2-yl)amino)cyclohexane-1,2-diol] | 1000 to 5000 nM | ≤ 50 nM
17 | C=C(c1ccc2c(c1)ncn2Cc1ccc2nc(N[C@@H]3CCCC[C@H]3O)sc2c1)C(F)(F)F [Example 175, (1R,2R)-2-((6-((5-(3,3,3-trifluoroprop-1-en-2-yl)-1H-benzo[d]imidazol-1-yl)methyl)benzo[d]thiazol-2-yl)amino)cyclohexanol] | 200 to 1000 nM | 50 to 400 nM
18 | O[C@@H]1CCCC[C@H]1Nc1nc2c(Cl)cc(Cc3cnc4ccc(N5CCOCC5)nn34)cc2s1 [Example 156, (1R,2R)-2-((4-chloro-6-((6-morpholinoimidazo[1,2-b]pyridazin-3-yl)methyl)benzo[d]thiazol-2-yl)amino)cyclohexanol] | 1000 to 5000 nM | 400 to 1500 nM
19 | COc1ccc2ncc(Cc3ccc4nc(N[C@@H]5CCCC[C@H]5O)sc4c3)n2n1 [Example 150, (1R,2R)-2-((6-((6-methoxyimidazo[1,2-b]pyridazin-3-yl)methyl)benzo[d]thiazol-2-yl)amino)cyclohexanol] | 200 to 1000 nM | 50 to 400 nM
20 | N#Cc1ccn2c(Cc3ccc4nc(N[C@@H]5CCCC[C@H]5O)sc4c3)cnc2c1 [Example 117, 3-((2-(((1R,2R)-2-hydroxycyclohexyl)amino)benzo[d]thiazol-6-yl)methyl)imidazo[1,2-a]pyridine-7-carbonitrile] | > 5000 nM | 400 to 1500 nM
21 | OC[C@@H]1CCCC[C@H]1Nc1nc2ccc(Cn3cnc4cc(Br)cnc43)cc2s1 [Example 133, ((1R,2R)-2-((6-((6-bromo-3H-imidazo[4,5-b]pyridin-3-yl)methyl)benzo[d]thiazol-2-yl)amino)cyclohexyl)methanol] | 1000 to 5000 nM | 50 to 400 nM
22 | O[C@@H]1CCCC[C@H]1Nc1nc2ccc(Cn3cnc4cc(F)cc(F)c43)cc2s1 [Example 148, (1R,2R)-2-((6-((5,7-difluoro-1H-benzo[d]imidazol-1-yl)methyl)benzo[d]thiazol-2-yl)amino)cyclohexanol] | 1000 to 5000 nM | 50 to 400 nM
23 | O[C@@H]1CCCC[C@H]1Nc1nc2ccc(Cn3cnc4cc(Cl)c(Cl)nc43)cc2s1 [Example 137, (1R,2R)-2-((6-((5,6-dichloro-3H-imidazo[4,5-b]pyridin-3-yl)methyl)benzo[d]thiazol-2-yl)amino)cyclohexanol] | 200 to 1000 nM | ≤ 50 nM
24 | COc1ccc2ncn(Cc3ccc4nc(N[C@@H]5CCCC[C@H]5O)oc4c3)c2c1 [Example 152, (1R,2R)-2-((6-((6-methoxy-1H-benzo[d]imidazol-1-yl)methyl)benzo[d]oxazol-2-yl)amino)cyclohexanol] | ≤ 200 nM | 50 to 400 nM
25 | O[C@@H]1CCCC[C@H]1Nc1nc2c(F)cc(Cn3cnc4cccnc43)c(F)c2s1 [Example 168, (1R,2R)-2-((6-((3H-imidazo[4,5-b]pyridin-3-yl)methyl)-4,7-difluorobenzo[d]thiazol-2-yl)amino)cyclohexanol] | 1000 to 5000 nM | 400 to 1500 nM
26 | O[C@@H]1CCCC[C@H]1Nc1nc2ncc(Cn3cnc4cccnc43)cc2s1 [Example 114, (1R,2R)-2-((6-((3H-imidazo[4,5-b]pyridine-3-yl)methyl)thiazolo[4,5-b]pyridine-2-yl)amino)cyclohexanol] | 1000 to 5000 nM | > 1500 nM
